Experimental data taken from patent publication US10435398B2, “Oxazole orexin receptor antagonists” (MERCK SHARP & DOHME CORP., priority 2014, dated 2019).

Assays:
human orexin-2 receptor = human orexin-2 receptor (Homo sapiens (Human), UniProt O43614); test: FLIPR Ca2+ Flux Assay, hOX2R; type: cell-based; conditions: CHO cells expressing human orexin-2 receptor; agonist 70 pM Ala-6,12 human orexin-A
Experimental: (§1) The utility of the compounds in accordance with the present invention as orexin receptor OX1R and/or OX2R antagonists may be readily determined without undue experimentation by methodology well known in the art, including the “FLIPR Ca^2+ Flux Assay” (Okumura et al., Biochem. Biophys. Res. Comm. 280:976-981, 2001). In a typical experiment the OX1 and OX2 receptor antagonistic activity of the compounds of the present invention was determined in accordance with the following experimental method. For intracellular calcium measurements, Chinese hamster ovary (CHO) cells expressing the rat or human orexin-1 receptor or the human orexin-2 receptor, are grown in Iscove's modified DMEM containing 2 mM L-glutamine, […], 1% hypoxanthine-thymidine supplement, 100 U/ml penicillin, 100 μg/ml streptomycin and 10% heat-inactivated fetal calf serum (FCS). The cells are seeded at 20,000 cells/well into Becton-Dickinson black 384-well clear bottom sterile plates coated with poly-D-lysine. All reagents were from GIBCO-Invitrogen Corp. The seeded plates are incubated overnight at 37° C. and 5% CO2. Ala-6,12 human orexin-A as the agonist is prepared as a 1 mM stock solution in 1% bovine serum albumin (BSA) and diluted in assay buffer (HBSS containing 20 mM HEPES, 0.1% BSA and 2.5 mM probenecid, pH7.4) for use in the assay at a final concentration of 70 pM. Test compounds are prepared as 10 mM stock solution in DMSO, then diluted in 384-well plates, first in DMSO, then assay buffer. On the day of the assay, cells are washed 3 times with 100 μl assay buffer and then incubated for 60 min (37° C., 5% CO2) in 60 μl assay buffer containing 1 μM Fluo-4AM ester, 0.02% pluronic acid, and 1% BSA. The dye loading solution is then aspirated and cells are washed 3 times with 100 μl assay buffer. 30 μl of that same buffer is left in each well. Within the Fluorescent Imaging Plate Reader (FLIPR, Molecular Devices), test compounds are added to the plate in a volume of 25 μl, incubated for 5 min and finally 25 μl of agonist is added. Fluorescence is measured for each well at 1 second intervals for 5 minutes and the height of each fluorescence peak is compared to the height of the fluorescence peak induced by 70 pM Ala-6,12 orexin-A with buffer in place of antagonist. For each antagonist, IC50 value (the concentration of compound needed to inhibit 50% of the agonist response) is determined. Alternatively, compound potency can be assessed by a radioligand binding assay (described in Bergman et. al. Bioorg. Med. Chem. Lett. 2008, 18, 1425-1430) in which the inhibition constant (Ki) is determined in membranes prepared from CHO cells expressing either the OX1 or OX2 receptor. The intrinsic orexin receptor antagonist activity of a compound which may be used in the present invention may be determined by these assays.

human orexin-1 receptor = human orexin-1 receptor (Homo sapiens (Human), UniProt O43613); test: FLIPR Ca2+ Flux Assay, hOX1R; type: cell-based; conditions: CHO cells expressing human orexin-1 receptor; agonist 70 pM Ala-6,12 human orexin-A
Experimental: as §1

human orexin-2 receptor, sequence (O43614 whole entry): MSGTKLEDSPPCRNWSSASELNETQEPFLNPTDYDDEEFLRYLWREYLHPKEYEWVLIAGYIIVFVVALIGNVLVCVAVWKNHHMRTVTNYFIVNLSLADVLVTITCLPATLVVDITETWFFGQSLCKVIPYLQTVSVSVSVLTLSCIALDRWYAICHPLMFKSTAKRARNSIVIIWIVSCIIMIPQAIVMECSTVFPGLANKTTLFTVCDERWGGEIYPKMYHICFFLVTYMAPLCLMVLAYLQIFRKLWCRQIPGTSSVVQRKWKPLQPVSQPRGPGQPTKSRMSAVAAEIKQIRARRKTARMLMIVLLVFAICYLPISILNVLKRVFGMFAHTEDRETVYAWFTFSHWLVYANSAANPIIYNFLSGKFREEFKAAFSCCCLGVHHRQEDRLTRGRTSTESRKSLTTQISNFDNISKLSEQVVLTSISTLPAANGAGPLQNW
human orexin-1 receptor, sequence (O43613 whole entry): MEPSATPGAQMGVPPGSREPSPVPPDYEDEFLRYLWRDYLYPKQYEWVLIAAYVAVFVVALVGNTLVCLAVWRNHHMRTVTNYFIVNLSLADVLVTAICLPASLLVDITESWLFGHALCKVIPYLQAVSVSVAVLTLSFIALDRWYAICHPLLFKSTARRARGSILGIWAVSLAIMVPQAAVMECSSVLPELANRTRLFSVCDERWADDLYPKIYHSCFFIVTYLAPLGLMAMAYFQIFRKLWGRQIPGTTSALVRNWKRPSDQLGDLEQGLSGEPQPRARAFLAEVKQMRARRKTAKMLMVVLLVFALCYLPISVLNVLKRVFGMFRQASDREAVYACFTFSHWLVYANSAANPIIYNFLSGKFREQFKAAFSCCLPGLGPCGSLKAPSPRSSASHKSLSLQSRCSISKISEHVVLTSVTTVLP

For `Cc1oc(CCN(CC(F)F)C(=O)c2ccccc2-n2nccn2)nc1C(C)(C)O` [Example 24, N-(2,2-Difluoroethyl)-N-{2-[4-(1-hydroxy-1-methylethyl)-5-methyl-1,3-oxazol-2-yl]ethyl}-2-(2H-1,2,3-triazol-2-yl)benzamide], the IC50 (human orexin-2 receptor) was 68 nM and the IC50 (human orexin-1 receptor) was over 10 µM.
In the case of `Cc1oc(CCN(C(=O)c2ccccc2-n2nccn2)C(C)C)nc1C(C)(C)O` [Example 25, N-{2-[4-(1-Hydroxy-1-methylethyl)-5-methyl-1,3-oxazol-2-yl]ethyl}-N-(1-methylethyl)-2-(2H-1,2,3-triazol-2-yl)benzamide], the IC50 (human orexin-2 receptor) is reported as 152 nM and the IC50 (human orexin-1 receptor) is reported as over 10 µM.
Work on `Cc1oc(CCN(CCCO)C(=O)c2ccccc2-n2nccn2)nc1C(C)(C)O` [Example 27, N-{2-[4-(1-Hydroxy-1-methylethyl)-5-methyl-1,3-oxazol-2-yl]ethyl}-N-(3-hydroxypropyl)-2-(2H-1,2,3-triazol-2-yl)benzamide] yielded an IC50 (human orexin-2 receptor) of 304 nM and an IC50 (human orexin-1 receptor) of over 10 µM.
`Cc1oc(CCN(CCO)C(=O)c2ccccc2-n2nccn2)nc1C(C)(C)O` [Example 28, N-(2-hydroxyethyl)-N-(2-(4-(2-hydroxypropan-2-yl)-5-methyloxazol-2-yl)ethyl)-2-(2H-1,2,3-triazol-2-yl)benzamide] was tested, and the IC50 (human orexin-2 receptor) was 98 nM and the IC50 (human orexin-1 receptor) was over 10 µM.
With `COCCN(CCc1nc(C(C)(C)O)c(C)o1)C(=O)c1ccccc1-n1nccn1` [Example 29, N-(2-(4-(2-Hydroxypropan-2-yl)-5-methyloxazol-2-yl)ethyl)-N-(2-methoxyethyl)-2-(2H-1,2,3-triazol-2-yl)benzamide] the IC50 (human orexin-2 receptor) was 19 nM and the IC50 (human orexin-1 receptor) was over 10 µM.
`Cc1oc(CCN(C)C(=O)c2ccccc2-n2nccn2)nc1C(C)(C)O` [Example 30, N-(2-(4-(2-Hydroxypropan-2-yl)-5-methyloxazol-2-yl)ethyl)-N-methyl-2-(2H-1,2,3-triazol-2-yl)benzamide] showed an IC50 (human orexin-2 receptor) of 390 nM and an IC50 (human orexin-1 receptor) of over 10 µM.
`Cc1oc(CCN(C(=O)c2ccccc2-n2nccn2)C2CC2)nc1C(C)(C)O` [Example 31, N-Cyclopropyl-N-(2-(4-(2-hydroxypropan-2-yl)-5-methyloxazol-2-yl)ethyl)-2-(2H-1,2,3-triazol-2-yl)benzamide] gave an IC50 (human orexin-2 receptor) of 42 nM and an IC50 (human orexin-1 receptor) of 7.59 µM.
`Cc1oc(CCN(C(=O)c2ccccc2-n2nccn2)C2CCC2)nc1C(C)(C)O` [Example 32, N-Cyclobutyl-N-(2-(4-(2-hydroxypropan-2-yl)-5-methyloxazol-2-yl)ethyl)-2-(2H-1,2,3-triazol-2-yl)benzamide] was tested, and the IC50 (human orexin-2 receptor) was 38 nM and the IC50 (human orexin-1 receptor) was 8.18 µM.
`COCCCN(CCc1nc(C(C)(C)O)c(C)o1)C(=O)c1ccccc1-n1nccn1` [Example 33, N-(2-(4-(2-Hydroxypropan-2-yl)-5-methyloxazol-2-yl)ethyl)-N-(3-methoxypropyl)-2-(2H-1,2,3-triazol-2-yl)benzamide] was tested, and the IC50 (human orexin-2 receptor) was 119 nM and the IC50 (human orexin-1 receptor) was over 10 µM.
